{
  "source": "the supplement of paper PMC10307832",
  "test_in_all_cases": "relative viability (nuclei count vs DMSO), 5 days (fraction); higher = more cells survive",
  "key": {"[1]": {"tested_on": "CAL-12T", "summary_of_the_method": "(§1)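 Lung cancer cell lines were pin-tool dosed in 1536-well plates on the day after seeding, with either a lone drug or a fixed anchor-drug dose plus five library-drug doses (not always all listed) in √10 steps. Nuclei were counted on 4× images after 5 days. Relative viability is the ratio of treated-well to vehicle-well nuclei counts, with each value a median of duplicate plates.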"}, "[2]": {"tested_on": "COR-L 105", "summary_of_the_method": "as §1"}, "[3]": {"tested_on": "EMC-BAC-2", "summary_of_the_method": "as §1"}, "[4]": {"tested_on": "H3255", "summary_of_the_method": "as §1"}, "[5]": {"tested_on": "LC-2-ad", "summary_of_the_method": "as §1"}, "[6]": {"tested_on": "LK-2", "summary_of_the_method": "as §1"}, "[7]": {"tested_on": "NCI-H1395", "summary_of_the_method": "as §1"}, "[8]": {"tested_on": "NCI-H1437", "summary_of_the_method": "as §1"}, "[9]": {"tested_on": "NCI-H1651", "summary_of_the_method": "as §1"}, "[10]": {"tested_on": "NCI-H1755", "summary_of_the_method": "as §1"}, "[11]": {"tested_on": "NCI-H1793", "summary_of_the_method": "as §1"}, "[12]": {"tested_on": "NCI-H1915", "summary_of_the_method": "as §1"}, "[13]": {"tested_on": "NCI-H1944", "summary_of_the_method": "as §1"}, "[14]": {"tested_on": "NCI-H2085", "summary_of_the_method": "as §1"}, "[15]": {"tested_on": "NCI-H2087", "summary_of_the_method": "as §1"}, "[16]": {"tested_on": "NCI-H2228", "summary_of_the_method": "as §1"}, "[17]": {"tested_on": "NCI-H2347", "summary_of_the_method": "as §1"}, "[18]": {"tested_on": "NCI-H661", "summary_of_the_method": "as §1"}, "[19]": {"tested_on": "PC-3 [JPC-3]", "summary_of_the_method": "as §1"}, "[20]": {"tested_on": "SK-LU-1", "summary_of_the_method": "as §1"}},
  "data": [
    {"smiles": "COCC1(CO)C(=O)C2CCN1CC2", "note": "(configuration not stated) [PRIMA-1MET] + Cc1nc(NC(=O)N2CCC[C@H]2C(N)=O)sc1-c1ccnc(C(C)(C)C(F)(F)F)c1 [Alpelisib] (partner 2 µM)", "values": [
      {"measurement": "relative viability", "setting": "[1]; first compound 0.2 µM", "value": 1.19},
      {"measurement": "relative viability", "setting": "[1]; first compound 0.6325 µM", "value": 1.29},
      {"measurement": "relative viability", "setting": "[1]; first compound 2 µM", "value": 1.08},
      {"measurement": "relative viability", "setting": "[1]; first compound 6.325 µM", "value": 1.42},
      {"measurement": "relative viability", "setting": "[1]; first compound 20 µM", "value": 0.264},
      {"measurement": "relative viability", "setting": "[2]; first compound 0.2 µM", "value": 1.11},
      {"measurement": "relative viability", "setting": "[2]; first compound 0.6325 µM", "value": 0.997},
      {"measurement": "relative viability", "setting": "[2]; first compound 2 µM", "value": 1.14},
      {"measurement": "relative viability", "setting": "[2]; first compound 6.325 µM", "value": 0.852},
      {"measurement": "relative viability", "setting": "[2]; first compound 20 µM", "value": 0.176},
      {"measurement": "relative viability", "setting": "[3]; first compound 0.2 µM", "value": 0.82},
      {"measurement": "relative viability", "setting": "[3]; first compound 0.6325 µM", "value": 0.719},
      {"measurement": "relative viability", "setting": "[3]; first compound 2 µM", "value": 0.666},
      {"measurement": "relative viability", "setting": "[3]; first compound 6.325 µM", "value": 0.775},
      {"measurement": "relative viability", "setting": "[3]; first compound 20 µM", "value": 0.759},
      {"measurement": "relative viability", "setting": "[4]; first compound 0.2 µM", "value": 0.845},
      {"measurement": "relative viability", "setting": "[4]; first compound 0.6325 µM", "value": 0.547},
      {"measurement": "relative viability", "setting": "[4]; first compound 2 µM", "value": 0.574},
      {"measurement": "relative viability", "setting": "[4]; first compound 6.325 µM", "value": 0.793},
      {"measurement": "relative viability", "setting": "[4]; first compound 20 µM", "value": 0.666},
      {"measurement": "relative viability", "setting": "[5]; first compound 0.2 µM", "value": 0.909},
      {"measurement": "relative viability", "setting": "[5]; first compound 0.6325 µM", "value": 0.931},
      {"measurement": "relative viability", "setting": "[5]; first compound 2 µM", "value": 1.01},
      {"measurement": "relative viability", "setting": "[5]; first compound 6.325 µM", "value": 0.909},
      {"measurement": "relative viability", "setting": "[5]; first compound 20 µM", "value": 0.695},
      {"measurement": "relative viability", "setting": "[6]; first compound 0.2 µM", "value": 1.22},
      {"measurement": "relative viability", "setting": "[6]; first compound 0.6325 µM", "value": 0.868},
      {"measurement": "relative viability", "setting": "[6]; first compound 2 µM", "value": 0.577},
      {"measurement": "relative viability", "setting": "[6]; first compound 6.325 µM", "value": 0.626},
      {"measurement": "relative viability", "setting": "[6]; first compound 20 µM", "value": 0.162},
      {"measurement": "relative viability", "setting": "[7]; first compound 0.2 µM", "value": 1.13},
      {"measurement": "relative viability", "setting": "[7]; first compound 0.6325 µM", "value": 0.737},
      {"measurement": "relative viability", "setting": "[7]; first compound 2 µM", "value": 0.977},
      {"measurement": "relative viability", "setting": "[7]; first compound 6.325 µM", "value": 0.993},
      {"measurement": "relative viability", "setting": "[7]; first compound 20 µM", "value": 0.635},
      {"measurement": "relative viability", "setting": "[8]; first compound 0.2 µM", "value": 1},
      {"measurement": "relative viability", "setting": "[8]; first compound 0.6325 µM", "value": 0.972},
      {"measurement": "relative viability", "setting": "[8]; first compound 2 µM", "value": 1.01},
      {"measurement": "relative viability", "setting": "[8]; first compound 6.325 µM", "value": 1.12},
      {"measurement": "relative viability", "setting": "[8]; first compound 20 µM", "value": 0.926},
      {"measurement": "relative viability", "setting": "[9]; first compound 0.2 µM", "value": 0.904},
      {"measurement": "relative viability", "setting": "[9]; first compound 0.6325 µM", "value": 0.981},
      {"measurement": "relative viability", "setting": "[9]; first compound 2 µM", "value": 1.17},
      {"measurement": "relative viability", "setting": "[9]; first compound 6.325 µM", "value": 0.962},
      {"measurement": "relative viability", "setting": "[9]; first compound 20 µM", "value": 0.837},
      {"measurement": "relative viability", "setting": "[10]; first compound 0.2 µM", "value": 0.974},
      {"measurement": "relative viability", "setting": "[10]; first compound 0.6325 µM", "value": 0.891},
      {"measurement": "relative viability", "setting": "[10]; first compound 2 µM", "value": 0.864},
      {"measurement": "relative viability", "setting": "[10]; first compound 6.325 µM", "value": 0.952},
      {"measurement": "relative viability", "setting": "[10]; first compound 20 µM", "value": 0.892},
      {"measurement": "relative viability", "setting": "[11]; first compound 0.2 µM", "value": 0.953},
      {"measurement": "relative viability", "setting": "[11]; first compound 0.6325 µM", "value": 0.676},
      {"measurement": "relative viability", "setting": "[11]; first compound 6.325 µM", "value": 0.736},
      {"measurement": "relative viability", "setting": "[11]; first compound 20 µM", "value": 0.707},
      {"measurement": "relative viability", "setting": "[12]; first compound 0.2 µM", "value": 1.15},
      {"measurement": "relative viability", "setting": "[12]; first compound 0.6325 µM", "value": 0.861},
      {"measurement": "relative viability", "setting": "[12]; first compound 2 µM", "value": 0.853},
      {"measurement": "relative viability", "setting": "[12]; first compound 6.325 µM", "value": 1.01},
      {"measurement": "relative viability", "setting": "[12]; first compound 20 µM", "value": 0.974},
      {"measurement": "relative viability", "setting": "[13]; first compound 0.2 µM", "value": 1.01},
      {"measurement": "relative viability", "setting": "[13]; first compound 0.6325 µM", "value": 0.719},
      {"measurement": "relative viability", "setting": "[13]; first compound 6.325 µM", "value": 0.849},
      {"measurement": "relative viability", "setting": "[13]; first compound 20 µM", "value": 0.823},
      {"measurement": "relative viability", "setting": "[14]; first compound 0.2 µM", "value": 1.04},
      {"measurement": "relative viability", "setting": "[14]; first compound 0.6325 µM", "value": 0.941},
      {"measurement": "relative viability", "setting": "[14]; first compound 2 µM", "value": 0.962},
      {"measurement": "relative viability", "setting": "[14]; first compound 6.325 µM", "value": 0.554},
      {"measurement": "relative viability", "setting": "[14]; first compound 20 µM", "value": 0.35},
      {"measurement": "relative viability", "setting": "[15]; first compound 0.2 µM", "value": 1.23},
      {"measurement": "relative viability", "setting": "[15]; first compound 0.6325 µM", "value": 0.775},
      {"measurement": "relative viability", "setting": "[15]; first compound 2 µM", "value": 1.18},
      {"measurement": "relative viability", "setting": "[15]; first compound 6.325 µM", "value": 1.28},
      {"measurement": "relative viability", "setting": "[15]; first compound 20 µM", "value": 0.901},
      {"measurement": "relative viability", "setting": "[16]; first compound 0.2 µM", "value": 1.06},
      {"measurement": "relative viability", "setting": "[16]; first compound 0.6325 µM", "value": 0.654},
      {"measurement": "relative viability", "setting": "[16]; first compound 2 µM", "value": 0.744},
      {"measurement": "relative viability", "setting": "[16]; first compound 6.325 µM", "value": 0.534},
      {"measurement": "relative viability", "setting": "[16]; first compound 20 µM", "value": 0.0746},
      {"measurement": "relative viability", "setting": "[17]; first compound 0.2 µM", "value": 1.08},
      {"measurement": "relative viability", "setting": "[17]; first compound 0.6325 µM", "value": 1.01},
      {"measurement": "relative viability", "setting": "[17]; first compound 2 µM", "value": 0.602},
      {"measurement": "relative viability", "setting": "[17]; first compound 6.325 µM", "value": 1.08},
      {"measurement": "relative viability", "setting": "[17]; first compound 20 µM", "value": 0.923},
      {"measurement": "relative viability", "setting": "[18]; first compound 0.2 µM", "value": 0.617},
      {"measurement": "relative viability", "setting": "[18]; first compound 0.6325 µM", "value": 0.581},
      {"measurement": "relative viability", "setting": "[18]; first compound 6.325 µM", "value": 0.602},
      {"measurement": "relative viability", "setting": "[18]; first compound 20 µM", "value": 0.297},
      {"measurement": "relative viability", "setting": "[19]; first compound 0.2 µM", "value": 1.1},
      {"measurement": "relative viability", "setting": "[19]; first compound 0.6325 µM", "value": 0.942},
      {"measurement": "relative viability", "setting": "[19]; first compound 2 µM", "value": 1.02},
      {"measurement": "relative viability", "setting": "[19]; first compound 6.325 µM", "value": 1.07},
      {"measurement": "relative viability", "setting": "[19]; first compound 20 µM", "value": 1.06},
      {"measurement": "relative viability", "setting": "[20]; first compound 0.2 µM", "value": 1.11},
      {"measurement": "relative viability", "setting": "[20]; first compound 0.6325 µM", "value": 0.918},
      {"measurement": "relative viability", "setting": "[20]; first compound 2 µM", "value": 1.04},
      {"measurement": "relative viability", "setting": "[20]; first compound 6.325 µM", "value": 0.99},
      {"measurement": "relative viability", "setting": "[20]; first compound 20 µM", "value": 0.109}
    ]}
  ]
}
